pIC50: −log10 of the molar value.

T1 sequence (Q9WMX2 2420-2992): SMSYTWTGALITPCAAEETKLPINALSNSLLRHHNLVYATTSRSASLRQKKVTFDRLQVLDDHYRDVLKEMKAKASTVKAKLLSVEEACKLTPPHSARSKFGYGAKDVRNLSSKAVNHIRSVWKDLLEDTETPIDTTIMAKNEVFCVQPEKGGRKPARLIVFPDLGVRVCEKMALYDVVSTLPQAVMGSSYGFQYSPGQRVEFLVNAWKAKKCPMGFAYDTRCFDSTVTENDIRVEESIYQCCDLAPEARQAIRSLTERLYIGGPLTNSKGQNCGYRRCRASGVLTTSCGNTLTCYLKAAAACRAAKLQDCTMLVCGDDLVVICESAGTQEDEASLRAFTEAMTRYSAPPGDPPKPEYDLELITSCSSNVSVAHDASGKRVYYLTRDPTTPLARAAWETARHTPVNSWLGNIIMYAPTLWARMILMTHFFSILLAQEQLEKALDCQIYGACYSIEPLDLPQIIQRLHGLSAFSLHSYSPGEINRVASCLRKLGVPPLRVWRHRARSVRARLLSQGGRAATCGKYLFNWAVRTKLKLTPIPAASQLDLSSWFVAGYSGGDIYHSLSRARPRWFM

This assay addresses T1, HCV NS5B RdRp genotype 1b (Hepatitis C virus genotype 1b, UniProt Q9WMX2).
T1 construct: The protein was expressed with an 18 amino acid C-terminal truncation to enhance the solubility; made in house; host or cells: E. coli BL21(DE3)
The assay is described as follows: HCV NS5B RdRp enzyme assay. It is filed as biochemical. To be noted: IC50, HCV RdRp genotype 1b enzyme, C-terminal 18 aa truncated; average of single point IC50 values. Here is the method: HCV NS5B RdRp cloning, expression and purification. The cDNA encoding the NS5B protein of HCV, genotype 1b, was cloned into the pET21a expression vector. The protein was expressed with an 18 amino acid C-terminal truncation to enhance the solubility. The E. coli competent cell line BL21(DE3) was used for expression of the protein. Cultures were grown at 37° C. for ˜4 hours until the cultures reached an optical density of 2.0 at 600 nm. The cultures were cooled to 20° C. and induced with 1 mM IPTG. Fresh ampicillin was added to a final concentration of 50 ug/ml and the cells were grown overnight at 20° C.
Cell pellets (3L) were lysed for purification to yield 15-24 mgs of purified NS5B. The lysis buffer consisted of 20 mM Tris-HCl, pH 7.4, 500 mM NaCl, 0.5% triton X-100, 1 mM DTT, 1 mM EDTA, 20% glycerol, 0.5 mg/ml lysozyme, 10 mM MgCl2, 15 ug/ml deoxyribonuclease I, and Complete TM protease inhibitor tablets (Roche). After addition of the lysis buffer, frozen cell pellets were resuspended using a tissue homogenizer. To reduce the viscosity of the sample, aliquots of the lysate were sonicated on ice using a microtip attached to a Branson sonicator. The sonicated lysate was centrifuged at 100,000×g for 1 hr at 4° C. and filtered through a 0.2 μm filter unit (Corning).
The protein was purified using three sequential chromatography steps: Heparin sepharose CL-6B, polyU sepharose 4B, and Hitrap SP sepharose (Pharmacia). The chromatography buffers were identical to the lysis buffer but contained no lysozyme, deoxyribonuclease I, MgCl2 or protease inhibitor and the NaCl concentration of the buffer was adjusted according to the requirements for charging the protein onto the column. Each column was eluted with a NaCl gradient which varied in length from 5-50 column volumes depending on the column type. After the final chromatography step, the resulting purity of the enzyme is >90% based on SDS-PAGE analysis. The enzyme was aliquoted and stored at −80° C.
HCV NS5B RdRp enzyme assay. HCV RdRp genotype 1b assays were run in assay buffer composed of 20 mM Tris-HCl, pH 7.5, 2.5 mM KCl, 5 mM MgCl2, 1 mM DTT, 1.6 U RNAse inhibitor (Promega N2515), in 96 well plates (Falcon 3918). All compounds were serially diluted in DMSO and diluted further in assay buffer such that the final concentration of DMSO in the assay was 2%. Compounds were serially diluted (3-fold each time) for a 7 point inhibition analysis. HCV RdRp genotype 1b enzyme was used at a final concentration of 28 nM. A polyA template was used at 28 nM, and the oligo-dT12-18 primer was used at 840 nM final concentration. Preannealed primer and template were obtained commercially (Amersham 27-787802). ^3H-UTP was used at 0.125 μCi (1 μM total UTP). Reaction was initiated by the addition of enzyme. Reactions were incubated at 30° C. for 45 min, and stopped by adding 30 ul of 20% ice cold TCA. Plates were chilled for 30 minutes and harvested onto Unifilter-96, GF/B plates (Packard, 6005177) using a Packard FilterMate Cell Harvester. The harvest plates were prewashed 3 times, 200 ul/well, with 100 mM NaPPi. Harvested filters were washed 30 times, 200 ul/well, with distilled water followed by ethanol. Filter plates were dried, and 30 ul/well microscint-20 was added. Plates were read on a Packard Top Count NXT.
The IC50 values for compounds were determined using […] different [I], combined with 7 nM enzyme, 800 ng of the template-primer polyC/oligoG12 (1:5 molar ratio), and 0.7 uM of ^3H GTP containing 1 uCi. The observed fractional activity (fa=vi/vo) was used in the equation IC50=[I]/(1/fa-1) to determine a single point IC50 value. Typically, the single point IC50 values derived from [I] that produced fractional activities in the range of 0.1 to 0.8 relative to the uninhibited control were averaged to calculate the IC50 value for each compound.
The term pIC50 denotes the IC50 on a negative log10 scale, so that one unit is a factor of ten. The low end stands for a large IC50, the high end for a small IC50. As to `O=C(O)c1ccc(-c2ccccc2-c2ccccc2)c(COc2ccc(-c3nc4cc(-c5nnn[nH]5)ccc4n3C3CCCCC3)cc2)c1` [Example 29], the pIC50 was 6.60.

The compound `CNC(=O)c1ccc(-c2cccc(O)c2)c(COc2ccc(-c3nc4cc(-c5nnn[nH]5)ccc4n3C3CCCCC3)cc2)c1` [Example 68] gave a negative-log IC50 (pIC50) of 6.27. With `O=C(c1ccc(-c2ccc(Cl)cc2)c(COc2ccc(-c3nc4cc(-c5nnn[nH]5)ccc4n3C3CCCCC3)cc2)c1)N1CCC(O)CC1` [Example 48], the pIC50 was 6.49. In the case of `COc1ccc(-c2ccc(C(=O)NC(C)C(=O)OC(C)(C)C)cc2COc2ccc(-c3nc4cc(-c5nnn[nH]5)ccc4n3C3CCCCC3)cc2)cc1OC` (stereo not shown) [Example 94] it was 5.68; in that of `COc1ccc(-c2ccc(C(=O)NCC(=O)O)cc2COc2ccc(-c3nc4cc(-c5nnn[nH]5)ccc4n3C3CCCCC3)cc2)cc1OC` [Example 98], 6.68. For `O=C(O)c1ccc(-c2ccc(O)cc2)c(COc2ccc(-c3nc4cc(-c5nnn[nH]5)ccc4n3C3CCCCC3)cc2)c1` [Example 46] the value was 7.22; for `O=C(c1ccc(-c2ccsc2)c(COc2ccc(-c3nc4cc(-c5nnn[nH]5)ccc4n3C3CCCCC3)cc2)c1)N1CCCC1` [Example 134], 6.43. `O=C(c1ccc(-c2ccc(F)c(Cl)c2)c(COc2ccc(-c3nc4cc(-c5nnn[nH]5)ccc4n3C3CCCCC3)cc2)c1)N1CCOCC1` [Example 76] showed a pIC50 of 5.85. Turning to `O=C(O)CNC(=O)c1ccc(-c2ccsc2)c(COc2ccc(-c3nc4cc(-c5nnn[nH]5)ccc4n3C3CCCCC3)cc2)c1` [Example 143], the pIC50 was 7.10. The compound `CC(=O)c1ccc(-c2ccc(C(=O)O)cc2COc2ccc(-c3nc4cc(-c5nnn[nH]5)ccc4n3C3CCCCC3)cc2)cc1` [Example 45] showed a pIC50 of 7.10. For the compound `COc1ccc(-c2ccc(C(=O)N3CCOCC3)cc2COc2ccc(-c3nc4cc(-c5nnn[nH]5)ccc4n3C3CCCCC3)cc2)cc1OC` [Example 88], the pIC50 is 6.33.

Take `CC(C)(C)OC(=O)CNC(=O)c1ccc(-c2cccc(O)c2)c(COc2ccc(-c3nc4cc(-c5nnn[nH]5)ccc4n3C3CCCCC3)cc2)c1` [Example 72]: the pIC50 was 6.03. In turn, `CC(C)(C)OC(=O)CNC(=O)c1ccc(-c2ccc(F)c(Cl)c2)c(COc2ccc(-c3nc4cc(-c5nnn[nH]5)ccc4n3C3CCCCC3)cc2)c1` [Example 84] gave a negative logarithm of the IC50 (pIC50) of 5.92. Regarding `CNC(=O)c1ccc(-c2ccc(Cl)cc2)c(COc2ccc(-c3nc4cc(-c5nnn[nH]5)ccc4n3C3CCCCC3)cc2)c1` [Example 106], the pIC50 was 6.18. Compound `O=C(O)c1ccc(C(=O)NS(=O)(=O)c2ccc3c(c2)nc(-c2ccc(OCc4ccccc4)cc2)n3C2CCCCC2)cc1` [Example 18, 4-[2-(4-Benzyloxyphenyl)-1-cyclohexyl-1H-benzimidazole-5-sulfonylaminocarbonyl]-benzoic acid] had a pIC50 of 5.82. In turn, `O=C(NC(Cc1ccc(O)cc1)C(=O)O)c1ccc(-c2ccc(F)c(Cl)c2)c(COc2ccc(-c3nc4cc(-c5nnn[nH]5)ccc4n3C3CCCCC3)cc2)c1` (stereo not shown) [Example 57] gave a pIC50 of 6.74.

Take `O=C(O)c1ccc(-c2ccc(F)c(Cl)c2)c(COc2ccc(-c3nc4cc(-c5nnn[nH]5)ccc4n3C3CCCCC3)cc2)c1` [Example 30]: the pIC50 was 7.40. For `CNC(=O)c1ccc(-c2ccc(Cl)cc2)c(COc2ccc(-c3nc4cc(-c5nnn[nH]5)ccc4n3C3CCCCC3)cc2)c1` [Example 50], the pIC50 was 6.64. Consider `CN(C)C(=O)c1ccc(-c2ccc3[nH]cc(C(=O)C(F)(F)F)c3c2)c(COc2ccc(-c3nc4cc(-c5nnn[nH]5)ccc4n3C3CCCCC3)cc2)c1` [Example 152], for which the pIC50 was 6.38.

For `O=Cc1ccoc1-c1ccc(C(=O)O)cc1COc1ccc(-c2nc3cc(-c4nnn[nH]4)ccc3n2C2CCCCC2)cc1` [Example 122], the negative-log IC50 (pIC50) is 6.17.

With `O=C(O)c1ccc(-c2ccc3c(c2)OCO3)c(COc2ccc(-c3nc4cc(-c5nnn[nH]5)ccc4n3C3CCCCC3)cc2)c1` [Example 118], the pIC50 was 7.15. On to `CNC(=O)c1ccc(-c2ccc(F)c(Cl)c2)c(COc2ccc(-c3nc4cc(-c5nnn[nH]5)ccc4n3C3CCCCC3)cc2)c1` [Example 79], for which the negative-log IC50 (pIC50) was 6.26. Regarding `O=C(NCCCO)c1ccc(-c2ccc(F)c(Cl)c2)c(COc2ccc(-c3nc4cc(-c5nnn[nH]5)ccc4n3C3CCCCC3)cc2)c1` [Example 78], the pIC50 was 6.16.

In the case of `c1ccc(C(Oc2ccc(-c3nc4cc(-c5nnn[nH]5)ccc4n3C3CCCCC3)cc2)c2ccccc2)cc1` [Example 1, 2-[4-(Diphenylmethoxy)phenyl]-1-cyclohexyl-5-(1H-tetrazol-5-yl)-1H-benzimidazole], the pIC50 was 6.20. Take `CC(NC(=O)c1ccc(-c2ccc(F)c(Cl)c2)c(COc2ccc(-c3nc4cc(-c5nnn[nH]5)ccc4n3C3CCCCC3)cc2)c1)C(=O)O` (stereo not shown) [Example 56]: the pIC50 is 6.72.

Source of the values: patent US6803374B2, “Compounds useful for treating hepatitis C virus” (priority 2001, dated 2004).
